In brackets after ≈: the same amount, converted by molar mass. Like-named read-outs stand apart in the source and are kept apart here.
How the values were obtained:
[1] = system: C. albicans ATCC 10261; test: Antimicrobial activity, broth microdilution (CLSI); format: cell-based; details: Candida albicans, ATCC10261
Description: The antimicrobial activity of designed compounds was investigated using broth microdilution.
Briefly, twofold serial dilutions of the compounds were prepared in Mueller–Hinton Broth (MHB, HiMedia) for bacterial strains and RPMI-1640 (Sigma-Aldrich) for yeast strain (Ranging 1–512 µg/ml). Then, 100 μL of each dilution was transferred into the well of a microtiter plate and inoculated with 100 μL of cell suspension with a final density of 1–5 × 10^3 CFU/ml for yeasts and 1–1.5 × 10^6 cells/ml for bacteria. Plates were incubated at proper temperature overnight, and the minimum inhibitory concentration (MIC) of compounds was determined as the lowest concentration that prevented visible growth of tested microorganisms compared with the growth in the control wells (wells without tested compounds). Moreover, the minimum bactericidal/fungicidal concentration (MBC/MFC) of compounds was determined by transferring the 10 µl of clear wells into the agar media. Standard antibacterial and antifungal agents (Ciprofloxacin and Fluconazole) were evaluated. All experiments were performed in duplicate[30],[31].

[2] = molecular target: T1, urease (Canavalia ensiformis, UniProt P07374); test: biochemical; format: biochemical
Description: The assay was performed exactly according to our previous report. Briefly, 850 μL of urea and 15 μL urease (0.135 units dissolved in PBS, pH 7.4) were added to 100 μL of the synthesized derivatives at different concentrations. After 30 min, to 100 μL of the incubated solution, 500 μL solution I (5.0 g phenol and 25.0 mg sodium nitroprusside in 500 mL water) was added followed by the addition of 500 μL of solution II (2.5 g sodium hydroxide, 4.2 mL sodium hypochlorite, and 5% chlorine in 500 mL water) which was further incubated at 37 °C for 30 min. The absorbance was determined by measuring indophenols at 625 nm. Thiourea was used as the standard inhibitor for urease. The IC50 values for all synthesized compounds were calculated using GraphPad Prism software (GraphPad Software, Inc., San Diego, CA)[20].

[3] = system: urease-positive clinical isolate of P. vulgaris; test: Urease inhibitory activity against P. vulgaris (Christensen's urea medium, 560 nm); format: cell-based; details: Proteus vulgaris; for IC50: 24 h at 37 °C, read at 560 nm
Description: To assess the inhibition of urease activity by synthetic compounds, Christensen’s urea.
medium containing urea and phenol red (pH indicator) was used for the preparation of two-fold serial dilutions of compounds in 96-well microtiter plates. Cell suspension of a urease-positive clinical isolate of P. vulgaris was prepared in a urea medium and added to each well. The turbidity of bacterial suspension was adjusted to 0.5 McFarland using a spectrophotometer, and also, the density of inoculated suspension was 1 × 10^6 CFU/ml. The concentrations of compounds were in the range of 1–512 µg/ml.
Inoculated media without adding any compound was considered a positive control, while uninoculated media were used as a negative control (blank). The anti-urease activity was assessed spectroscopically at 560 nm after 24 h incubation at 37 °C[14].

[4] = In vitro cytotoxic evaluation (MTT assay); format: cell-based; details: human, MOLT-4 cells
Description: MOLT-4 (human acute lymphoblastic leukemia) cells were cultures in RPMI-1640 medium supplemented with 10% heat-inactivated fetal bovine serum. Cell viability was measured by the MTT assay. MOLT-4 cells were seeded into 96-well micro-culture plates. After 24 h, the culture medium was replaced with a medium containing different concentrations of newly synthesized derivatives. Control wells were supplemented with the same volume of growth medium not containing any drugs. Cells were then incubated at 37 °C for 72 h. At the end of the exposure time, the medium was removed and MTT solution of 0.5 mg/ml was added to each well. The plates were incubated at 37 °C for 4 h, after which DMSO was added to each well to solubilize the formed formazan crystals, and the absorbance of each well was read with a microplate reader at 570 nm.

[5] = system: E. coli ATCC 25922; test: Antimicrobial activity, broth microdilution (CLSI); format: cell-based; details: Escherichia coli, ATCC25922, read-out: MIC
Description: (§1) Then, 100 μL of each dilution was transferred into the well of a microtiter plate and inoculated with 100 μL of cell suspension with a final density of 1–5 × 10^3 CFU/ml for yeasts and 1–1.5 × 10^6 cells/ml for bacteria. Plates were incubated at proper temperature overnight, and the minimum inhibitory concentration (MIC) of compounds was determined as the lowest concentration that prevented visible growth of tested microorganisms compared with the growth in the control wells (wells without tested compounds). […] All experiments were performed in duplicate[30],[31].

[6] = system: clinical isolate of P. vulgaris; test: Antimicrobial activity, broth microdilution (CLSI); format: cell-based; details: Proteus vulgaris
Description: as §1

[7] = system: S. aureus ATCC 25923; test: Antimicrobial activity, broth microdilution (CLSI); format: cell-based; details: Staphylococcus aureus, ATCC25923
Description: as §1

[8] = molecular target: T1, urease; test: Enzyme kinetic study of urease inhibition (Lineweaver–Burk); format: biochemical
Description: A Lineweaver–Burk plot was generated to identify the type of inhibition, and the Michaelis–Menten constant (Km) value was determined from the plot between the reciprocal of the substrate concentration (1/[S]) and reciprocal of enzyme rate (1/V) over various inhibitor concentrations. The experimental inhibitor constant (Ki) value was constructed by secondary plots of the inhibitor concentration [I] versus Km.

[9] = system: urease; details: read-out: IC50, urease inhibition, cited from earlier work
[10] = mean ± SEM, at least three experiments, read-out: IC50 (μM), urease inhibitory activity

T1 sequence (P07374 whole entry, looked up): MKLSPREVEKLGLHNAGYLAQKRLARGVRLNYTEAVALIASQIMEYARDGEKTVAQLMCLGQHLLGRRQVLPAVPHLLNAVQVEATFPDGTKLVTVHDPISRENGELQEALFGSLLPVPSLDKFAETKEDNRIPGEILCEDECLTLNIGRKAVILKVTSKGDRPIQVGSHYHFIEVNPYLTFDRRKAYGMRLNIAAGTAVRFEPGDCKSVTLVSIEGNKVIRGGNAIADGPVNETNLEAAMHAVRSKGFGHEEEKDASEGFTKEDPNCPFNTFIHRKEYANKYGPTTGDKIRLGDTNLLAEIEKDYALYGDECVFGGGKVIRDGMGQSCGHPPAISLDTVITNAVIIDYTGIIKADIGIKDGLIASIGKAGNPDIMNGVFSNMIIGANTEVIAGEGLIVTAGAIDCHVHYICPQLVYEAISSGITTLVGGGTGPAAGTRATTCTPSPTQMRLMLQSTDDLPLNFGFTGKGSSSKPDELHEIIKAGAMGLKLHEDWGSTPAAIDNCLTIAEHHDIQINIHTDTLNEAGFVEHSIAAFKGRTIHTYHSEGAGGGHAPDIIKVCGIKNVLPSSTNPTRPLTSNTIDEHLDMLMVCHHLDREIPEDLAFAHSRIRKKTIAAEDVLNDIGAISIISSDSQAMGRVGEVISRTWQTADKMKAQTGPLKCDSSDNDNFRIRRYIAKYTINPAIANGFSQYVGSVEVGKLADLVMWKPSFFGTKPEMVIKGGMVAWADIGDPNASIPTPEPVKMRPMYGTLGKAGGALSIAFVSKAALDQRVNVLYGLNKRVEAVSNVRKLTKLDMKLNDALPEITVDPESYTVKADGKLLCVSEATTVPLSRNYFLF

Row | SMILES | MIC [1] | melting point | IC50 [2] | IC50 [3] | viability at 72 h, 100 µM [4] | MIC [5] | MIC [6] | MIC [7] | also measured
1 | CCCCN1C(=O)[C@@H](CC(=O)NCc2ccccc2)SC1=S (racemic) [Compound 6i, N-benzyl-2-(3-butyl-4-oxo-2-thioxothiazolidin-5-yl)acetamide] | > 512 µg/mL | 172 to 174 °C | 1.47 ± 0.11 µM | 17.8 ± 3.75 µg/mL (≈ 52.8 µM) | 97.8 ± 2.5% | > 512 µg/mL | > 512 µg/mL | > 512 µg/mL | Ki [8]: 1170 nM; type of inhibition ([8]; Lineweaver–Burk plot, 6i at 0, 0.5, 1 and 2 µM): competitive
2 | O=C(O)[C@@H]1CSCN1 [A] |  |  |  |  |  |  |  |  | IC50 ([9]; thiazolidine carboxylic acid lead): 3030 ± 98 nM
3 | COc1cc(/C=N\N=C2\NC(=O)CS2)c(OC)cc1Br [C] |  |  |  |  |  |  |  |  | IC50 ([9]; 4-thiazolidinone analogs): 1730 ± 1000 nM
4 | O=C(CC1SC(=S)N(Cc2ccccc2)C1=O)NCc1ccccc1 (stereo not shown) [Compound 6a, N-benzyl-2-(3-benzyl-4-oxo-2-thioxothiazolidin-5-yl)acetamide] | > 512 µg/mL | 168 to 170 °C | 2.22 ± 0.36 µM |  | 95.5 ± 2.7% | > 512 µg/mL | > 512 µg/mL | > 512 µg/mL | 
5 | Cc1ccc(CNC(=O)CC2SC(=S)N(Cc3ccccc3)C2=O)cc1 (stereo not shown) [Compound 6b, 2-(3-benzyl-4-oxo-2-thioxothiazolidin-5-yl)-N-(4-methylbenzyl)acetamide] | > 512 µg/mL | 167 to 169 °C | 4.02 ± 1.12 µM |  | 91.2 ± 4.2% | > 512 µg/mL | > 512 µg/mL | > 512 µg/mL | 
6 | O=C(CC1SC(=S)N(Cc2ccccc2)C1=O)NCc1ccc(F)cc1 (stereo not shown) [Compound 6c, 2-(3-benzyl-4-oxo-2-thioxothiazolidin-5-yl)-N-(4-fluorobenzyl)acetamide] | > 512 µg/mL | 169 to 171 °C | 2.15 ± 0.18 µM |  | 92.7 ± 3.6% | > 512 µg/mL | > 512 µg/mL | > 512 µg/mL | 
7 | CCCNC(=O)CC1SC(=S)N(Cc2ccccc2)C1=O (stereo not shown) [Compound 6d, 2-(3-benzyl-4-oxo-2-thioxothiazolidin-5-yl)-N-propylacetamide] | > 512 µg/mL | 165 to 167 °C | 1.85 ± 0.66 µM | 126 ± 8.65 µg/mL (≈ 390 µM) | 95.5 ± 3.2% | > 512 µg/mL | > 512 µg/mL | > 512 µg/mL | 
8 | CCCCNC(=O)CC1SC(=S)N(Cc2ccccc2)C1=O (stereo not shown) [Compound 6e, 2-(3-benzyl-4-oxo-2-thioxothiazolidin-5-yl)-N-butylacetamide] | > 512 µg/mL | 166 to 168 °C | 1.64 ± 0.45 µM | 15.3 ± 2.4 µg/mL (≈ 45.4 µM) | 91.7 ± 2.8% | > 512 µg/mL | > 512 µg/mL | > 512 µg/mL | 
9 | CC(C)CNC(=O)CC1SC(=S)N(Cc2ccccc2)C1=O (stereo not shown) [Compound 6f, 2-(3-benzyl-4-oxo-2-thioxothiazolidin-5-yl)-N-isobutylacetamide] | > 512 µg/mL | 164 to 166 °C | 1.59 ± 0.47 µM | 32.4 ± 5.26 µg/mL (≈ 96.2 µM) | 91.9 ± 1.3% | > 512 µg/mL | > 512 µg/mL | > 512 µg/mL | 
10 | C=CCNC(=O)CC1SC(=S)N(Cc2ccccc2)C1=O (stereo not shown) [Compound 6g, N-allyl-2-(3-benzyl-4-oxo-2-thioxothiazolidin-5-yl)acetamide] | > 512 µg/mL |  | 1.61 ± 0.5 µM | 61.7 ± 6.41 µg/mL (≈ 192 µM) | 91.6 ± 3.7% | > 512 µg/mL | > 512 µg/mL | > 512 µg/mL | 
11 | O=C(CC1SC(=S)N(Cc2ccccc2)C1=O)NC1CCCC1 (stereo not shown) [Compound 6h, 2-(3-benzyl-4-oxo-2-thioxothiazolidin-5-yl)-N-cyclopentylacetamide] | > 512 µg/mL | 167 to 169 °C | 1.86 ± 0.29 µM | ≥ 512 µg/mL | 95 ± 4.2% | > 512 µg/mL | > 512 µg/mL | > 512 µg/mL | inhibition at 512 µg/mL ([3]; at 512 µg/ml): 48.5%
12 | CCCCN1C(=O)C(CC(=O)NCc2ccc(C)cc2)SC1=S (stereo not shown) [Compound 6j, 2-(3-butyl-4-oxo-2-thioxothiazolidin-5-yl)-N-(4-methylbenzyl)acetamide] |  | 174 to 176 °C | 5.66 ± 0.79 µM |  | 97.7 ± 4.6% |  |  |  | 
13 | CCCCN1C(=O)C(CC(=O)NCC(C)C)SC1=S (stereo not shown) [Compound 6k, 2-(3-butyl-4-oxo-2-thioxothiazolidin-5-yl)-N-isobutylacetamide] | > 512 µg/mL | 170 to 172 °C | 1.91 ± 0.57 µM |  | 98.5 ± 1.4% | > 512 µg/mL | > 512 µg/mL | > 512 µg/mL | 
14 | CC(C)CN1C(=O)C(CC(=O)NCc2ccccc2)SC1=S (stereo not shown) [Compound 6l, N-benzyl-2-(3-isobutyl-4-oxo-2-thioxothiazolidin-5-yl)acetamide] | > 512 µg/mL | 169 to 171 °C | 4.38 ± 0.61 µM |  | 93.6 ± 4.5% | > 512 µg/mL | > 512 µg/mL | > 512 µg/mL | 
15 | Cc1ccc(CNC(=O)CC2SC(=S)N(CC(C)C)C2=O)cc1 (stereo not shown) [Compound 6m, 2-(3-isobutyl-4-oxo-2-thioxothiazolidin-5-yl)-N-(4-methylbenzyl)acetamide] | > 512 µg/mL | 173 to 175 °C | 3.09 ± 1.08 µM |  | 97.7 ± 2.9% | > 512 µg/mL | > 512 µg/mL | > 512 µg/mL | 
16 | N#Cc1ccc(C(=O)NN2C(=O)CSC2c2ccccc2O)cc1 (stereo not shown) [D] |  |  |  |  |  |  |  |  | IC50 ([9]; arylhydrazide Schiff base-thiazolidinones): 4100 ± 20 nM
17 | COc1cccc2c1C(=O)c1c(O)c3c(c(O)c1C2=O)C[C@@](O)(C(=O)CO)C[C@@H]3O[C@H]1C[C@H](N)[C@H](O)[C@H](C)O1 [Doxorubicin, reference compound] |  |  |  |  |  |  |  |  | IC50 at 72 h ([4]; read-out: IC50 (µM), cytotoxicity): 12.7 ± 2.4 µM
18 | OC(Cn1cncn1)(Cn1cncn1)c1ccc(F)cc1F [Fluconazole, reference compound] | 4 µg/mL (≈ 13.1 µM) |  |  |  |  |  |  |  | 
19 | NC(=O)NO [Hydroxyurea, reference compound] |  |  |  |  |  |  |  |  | IC50 ([2]; mean ± SEM, at least three experiments, listed as hydroxyurea, read-out: IC50 (μM), urease inhibitory activity): 100 µM; IC50 [2, 10]: 100 ± 2.5 µM
20 | NC(N)=S [Thiourea, reference compound] |  |  |  |  |  |  |  |  | IC50 [2, 10]: 23.6 ± 0.84 µM

— PMC9807592, “New thioxothiazolidinyl-acetamides derivatives as potent urease inhibitors: design, synthesis, in vitro inhibition, and molecular dynamic simulation” (Scientific Reports, 2023)
